Data taken from PMC7227612 (Clinical cancer research : an official journal of the …, 2009).
Marks after values point to notes of the source that are not given here.

Assays:
[1] = Steady-state plasma pharmacokinetics, group A; assay type: in vivo, human; conditions: for Cav,ss: geometric mean (%CV); for Cmax / Tmax: human, plasma, oral
[2] = Steady-state plasma pharmacokinetics, group B; assay type: in vivo, human; conditions: for Cmax / Tmax: human, plasma, oral; for Cmax: Cmax,ss
[3] = Toxicity and dose limiting toxicity; assay type: in vivo
[4] = system: recurrent malignant glioma; experiment: Tumor response; assay type: in vivo, human
[5] = system: phosphorylated GSK3β (pGSK3β); experiment: pGSK3β in patient peripheral blood mononuclear cells; assay type: in vivo, human
GSK3β = experiment: Inhibition of GSK3β phosphorylation and activity in glioma cells in vitro; assay type: cell-based; conditions: Supplementary Fig. S1, concentration dependent
glioma cells = experiment: Cytotoxic activity against glioma cells in vitro; assay type: cell-based; conditions: Supplementary Fig. S1, concentration dependent
[6] = Group B, 500 mg twice daily, Patient 2
[7] = Group B, 1,000 mg daily, Patient 1
[8] = Group B, 1,000 mg daily, Patient 2
[9] = 500 mg, Group B, 500 mg twice daily, Patient 2
[10] = 1000 mg daily, Group B, 1,000 mg daily, Patient 1
[11] = 1000 mg daily, Group B, 1,000 mg daily, Patient 2

## Cn1cc(C2=C(c3cn(C4CCN(Cc5ccccn5)CC4)c4ccccc34)C(=O)NC2=O)c2ccccc21 [Enzastaurin]
[1]; DL 1, 800 mg daily, n = 12
  Cav,ss: 1,130 (89) nmol/L
[1]; DL-1, 250 mg twice daily, n = 3
  Cav,ss: 1,040 (124) nmol/L
[1]; DL-1, 500 mg daily, n = 5
  Cav,ss: 472 (109) nmol/L
[1]; 250 mg
  Cmax: 1390 nM
  Tmax: 6.03 h
[1]; 400 mg
  Cmax: 2710 nM
  Tmax: 4.03 h
[1]; 500 mg
  Cmax: 979 nM
  Tmax: 2.08 h
[1]; 800 mg
  Tmax: 4 h
[2]; [6]
  CL/F: 27 L/h
  Cav,ss: 3,050 nmol/L
[2]; [7]
  CL/F: 60 L/h
  Cav,ss: 1,340 nmol/L
[2]; [8]
  CL/F: 60 L/h
  Cav,ss: 1,350 nmol/L
[2]; [9]
  Cmax: 4090 nM
  Tmax: 4 h
[2]; [10]
  Cmax: 3010 nM
  Tmax: 4 h
[2]; [11]
  Cmax: 2730 nM
  Tmax: 2 h
[3]; human, in vivo
  Dose-limiting toxicities: thrombocytopenia and prolonged QTc
  Elevated ALT, Grade 1-2: 5 (23%)
  Elevated ALT, Grade 3-4: 1
  Elevated AST, Grade 1-2: 9 (41%)
  Elevated AST, Grade 3-4: 0
  Hematuria, Grade 1-2: 1
  Hematuria, Grade 3-4: 0
  Hypermagnesemia, Grade 1-2: 1
  Hypermagnesemia, Grade 3-4: 0
  Intracranial hemorrhage, Grade 1-2: 0
  Intracranial hemorrhage, Grade 3-4: 0
  Nausea, Grade 1-2: 1
  Nausea, Grade 3-4: 0
  Proteinuria, Grade 1-2: 1
  Proteinuria, Grade 3-4: 0
  QTc prolongation, Grade 1-2: 5 (23%)
  QTc prolongation, Grade 3-4: 2 (9%) ^*
  Relationship between QTcB changes from baseline and plasma concentrations: no significant relationship
  Thrombocytopenia, Grade 1-2: 6 (27%)
  Thrombocytopenia, Grade 3-4: 5 (23%)
[3]; human, in vivo, 6 wk
  Patients with dose limiting grade 3 thrombocytopenia: 2
[3]; number of patients, N = 22
  Elevated ALT, Grade 5: 0
  Elevated AST, Grade 5: 0
  Hematuria, Grade 5: 0
  Hypermagnesemia, Grade 5: 0
  Nausea, Grade 5: 0
  Proteinuria, Grade 5: 0
  QTc prolongation, Grade 5: 0
  Thrombocytopenia, Grade 5: 0
[3]; number of patients, N = 22, in the setting of grade 3 thrombocytopenia
  Intracranial hemorrhage, Grade 5: 1 ^†
[4]; 19 patients evaluable
  Complete response (patients): 1
  Partial response (patients): 1
[4]; 19 patients evaluable for radiographic response
  Objective responses: 11%
[4]; entire study group
  Median overall survival: 5.7 months
  Median progression-free survival: 1.4 months
[4]; one patient, Fig. 2
  Duration complete response maintained on therapy: > 3 y
[5]; five patients who achieved disease control
  pGSK3β levels at steady state vs baseline: decreased from baseline
[5]; one patient with progressive disease, after the first 3 weeks of therapy
  pGSK3β at steady state vs baseline: increased
[5]; two patients, Fig. 3B
  Kinetics of pGSK3β in peripheral blood mononuclear cells after administration: decrease in a time dependent manner
GSK3β
  Phosphorylation and activity of GSK3β: inhibits
Glioma cells
  Cytotoxicity: direct cytotoxic activity
